From PMC8872791, “MadR mediates acyl CoA-dependent regulation of mycolic acid desaturation in mycobacteria” (Proceedings of the National Academy of Sciences of the …, 2022)

Experiments:
Format in all cases: binding
[1] = biological target: T1, MadR (mycolic acid desaturase regulator, Rv0472c) (Mycobacterium tuberculosis, UniProt P9WMD9); experiment: intrinsic tryptophan fluorescence quenching
[2] = biological target: T1, MadR (mycolic acid desaturase regulator, Rv0472c); experiment: intrinsic tryptophan fluorescence quenching; EMSA shows release from desA1/desA2 promoters
[3] = biological target: T1, MadR (mycolic acid desaturase regulator, Rv0472c); experiment: intrinsic tryptophan fluorescence quenching (binds, but does not release promoter DNA)

T1 sequence (P9WMD9 whole entry, looked up): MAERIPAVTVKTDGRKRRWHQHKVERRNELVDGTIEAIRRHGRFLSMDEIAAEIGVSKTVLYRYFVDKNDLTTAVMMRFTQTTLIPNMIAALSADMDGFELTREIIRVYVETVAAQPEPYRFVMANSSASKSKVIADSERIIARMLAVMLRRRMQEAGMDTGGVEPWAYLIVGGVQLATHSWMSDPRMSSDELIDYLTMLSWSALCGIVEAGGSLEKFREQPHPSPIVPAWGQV

SMILES	Kd [2] [µM]	Kd [3] [µM]	further results
CCCCCCCCCCCCCC(=O)SCCNC(=O)CCNC(=O)[C@H](O)C(C)(C)COP(=O)(O)OP(=O)(O)OC[C@H]1O[C@@H](n2cnc3c(N)ncnc32)[C@H](O)[C@@H]1OP(=O)(O)O [C14:0-CoA, myristoyl-CoA]			Kd [1]: 12.4 µM
CCCCCCCCCCCCCCCC(=O)SCCNC(=O)CCNC(=O)[C@H](O)C(C)(C)COP(=O)(O)OP(=O)(O)OC[C@H]1O[C@@H](n2cnc3c(N)ncnc32)[C@H](O)[C@@H]1OP(=O)(O)O [C16:0-CoA, palmitoyl-CoA]	10.7		
CCCCCCCCCCCCCCCCCC(=O)SCCNC(=O)CCNC(=O)[C@H](O)C(C)(C)COP(=O)(O)OP(=O)(O)OC[C@H]1O[C@@H](n2cnc3c(N)ncnc32)[C@H](O)[C@@H]1OP(=O)(O)O [C18:0-CoA, stearoyl-CoA]	7.73		
CCCCCCCC/C=C\CCCCCCCC(=O)SCCNC(=O)CCNC(=O)[C@H](O)C(C)(C)COP(=O)(O)OP(=O)(O)OC[C@H]1O[C@@H](n2cnc3c(N)ncnc32)[C@H](O)[C@@H]1OP(=O)(O)O [C18:1-CoA, oleoyl-CoA]		9.55	
CCCCC/C=C\C/C=C\CCCCCCCC(=O)SCCNC(=O)CCNC(=O)[C@H](O)C(C)(C)COP(=O)(O)OP(=O)(O)OC[C@H]1O[C@@H](n2cnc3c(N)ncnc32)[C@H](O)[C@@H]1OP(=O)(O)O [C18:2-CoA, linoleoyl-CoA]		9.88	
CCCCCCCCCCCCCCCCCCCCCCCC(=O)SCCNC(=O)CCNC(=O)[C@H](O)C(C)(C)COP(=O)(O)OP(=O)(O)OC[C@H]1O[C@@H](n2cnc3c(N)ncnc32)[C@H](O)[C@@H]1OP(=O)(O)O [C24:0-CoA, lignoceroyl-CoA]	18.1		
